ChEMBL document CHEMBL5352409, “Design, synthesis, and pharmacological evaluation of 2-(1-(1,3,4-thiadiazol-2-yl)piperidin-4-yl)ethan-1-ol analogs as novel glutaminase 1 inhibitors” (Eur J Med Chem, 2022)
Active and inactive are the calls of the source. No cut-off for these calls is given here.

Tests used:
A549 [1] = test: Antiproliferative activity against human A549 cells assessed as reduction in cell viability; assay type: functional, cell-based
[2] = Terminal half life in rat at 3 mg/kg, po; assay type: ADME, organism-based; details: in vivo, read-out: beta t1/2 (converted)
[3] = AUC(0 to t) in rat at 3 mg/kg, po; assay type: ADME, organism-based; set-up: dose 3 mg/kg, route po; details: in vivo
A549 [4] = test: Inhibition of colony formation in human A549 cells at 2 to 8 uM; assay type: functional, cell-based; details: dose 2-8 µM
HCT-116 [5] = test: Inhibition of colony formation in human HCT-116 cells at 2 to 8 uM; assay type: functional, cell-based; details: dose 2-8 µM
A549 [6] = test: Induction of cell cycle arrest in human A549 cells assessed as accumulation at G1 phase incubated for 48 hrs by propidium iodide staining based flow cytometry analysis; assay type: functional; details: dose 50-800 nM
A549 [7] = test: Induction of cell cycle arrest in human A549 cells assessed as accumulation of cells at G0/G1 phase at 100 nM incubated for 48 hrs by propidium iodide staining based flow cytometry analysis (Rvb=61.61%); assay type: functional
A549 [8] = test: Induction of cell cycle arrest in human A549 cells assessed as accumulation of cells at G0/G1 phase at 400 nM incubated for 48 hrs by propidium iodide staining based flow cytometry analysis (Rvb=61.61%); assay type: functional
A549 [9] = test: Induction of cell cycle arrest in human A549 cells assessed as accumulation of cells at G0/G1 phase at 800 nM incubated for 48 hrs by propidium iodide staining based flow cytometry analysis (Rvb=61.61%); assay type: functional
A549 [10] = test: Induction of cell cycle arrest in human A549 cells assessed as accumulation of cells at G2/M phase at 100 nM incubated for 48 hrs by propidium iodide staining based flow cytometry analysis (Rvb=23.88%); assay type: functional
A549 [11] = test: Induction of cell cycle arrest in human A549 cells assessed as accumulation of cells at G2/M phase at 200 nM incubated for 48 hrs by propidium iodide staining based flow cytometry analysis (Rvb=23.88%); assay type: functional
A549 [12] = test: Induction of cell cycle arrest in human A549 cells assessed as accumulation of cells at G2/M phase at 400 nM incubated for 48 hrs by propidium iodide staining based flow cytometry analysis (Rvb=23.88%); assay type: functional
A549 [13] = test: Induction of cell cycle arrest in human A549 cells assessed as accumulation of cells at S phase at 50 nM incubated for 48 hrs by propidium iodide staining based flow cytometry analysis (Rvb=14.51%); assay type: functional
A549 [14] = test: Induction of cell cycle arrest in human A549 cells assessed as accumulation of cells at S phase at 100 nM incubated for 48 hrs by propidium iodide staining based flow cytometry analysis (Rvb=14.51%); assay type: functional
A549 [15] = test: Induction of intracellular ROS production in human A549 cells by DCFH-DA staining based fluorescence microscopic analysis; assay type: functional, cell-based; details: dose 1-10 µM
A549 [16] = test: Induction of apoptosis in human A549 cells assessed as early apoptotic cells at 10 uM incubated for 48 hrs by annexin V-FITC and propidium iodide based flow cytometry analysis (Rvb =12.289%); assay type: functional
[17] = Toxicity in human A549 cells xenografted in mouse assessed as body weight loss at 100 mg/kg administered via oral gavage for 28 days relative to control; assay type: organism-based; details: in vivo, 672 h, time 28 day
HCT-116 [18] = test: Antitumor activity against human HCT-116 cells xenografted in mouse model assessed as reduction in tumor cells at 100 mg/kg administered via oral gavage for 28 days; assay type: functional, organism-based; details: time 28.0 day
[19] = human, microsomes
Description: Metabolic stability in human liver microsome assessed as intrinsic clearance

in vitro = details: human, liver microsomes

Question: Which results are given for `CCCCCCN1CCC(CNC(=O)c2cccc(COCCC3CCN(c4nnc(NC(=O)Cc5ccccc5)s4)CC3)c2)CC1`?
Answer: IC50 (A549 [1]): 570 nM; half-life [2]: 19.8 h; AUCt [3]: 251.6 ng·h/mL; inhibition (A549 [4]): Active; inhibition (HCT-116 [5]): Active; Activity (A549 [6]): Dose-Dependent Effect; Activity (A549 [7]): 64.94%; Activity (A549 [8]): 67.53%; Activity (A549 [9]): 68.55%; Activity (A549 [10]): 17.3%; Activity (A549 [11]): 19.72%; Activity (A549 [12]): 18.77%; Activity (A549 [13]): 13.17%; Activity (A549 [14]): 17.76%; Activity (A549 [15]): Dose-Dependent Effect; Activity (A549 [16]): 16.025%; Activity [17]: Non-Toxic; Activity (HCT-116 [18]): Active; CLH [19]: 15.6 g/mL/min; half-life (in vitro): > 2 h
